Test results reported in patent US20260226084A1, “DUAL RAF AND TUBULIN INHIBITORS AND METHODS OF USE THEREOF” (Deciphera Pharmaceuticals, LLC, priority 2023, published 2026).

Columns and labels:
[1] = target: T1, B-Raf kinase (SEQ ID NO: 1) (Homo sapiens, UniProt P15056); assay: Biochemical Assay for B-Raf (coupled pyruvate kinase/lactate dehydrogenase assay); details: 1 mM ATP; read-out: BRAF (inhibition of biochemical activity, IC50)
T1 construct: GST (N); purchased Sigma

[2] = tested on: MiaPaca-2 cells; assay: MiaPaca-2 Cell Proliferation Assay; type: cell-based; details: Homo sapiens, MIA PaCa-2, MiaPaca-2 cells; Table 2; read-out: Inhibition of cell proliferation in MiaPaca-2 (IC50 class)
Procedure: Miapaca-2 cells (catalog #CRL-1420) are obtained from the American Type Culture Collect (ATTC, Manassas, VA). Briefly, cells were grown in DMVEM supplemented with 10 characterized fetal bovine serum (Invitrogen, Carlsbad, CA), 2.5% New Zealand sourced horse serum and 1 Penicillin/Streptomycin/L-Glutamine at 37° C., 5 CO2, and 95% humidity. Cells are expanded until reaching 70-95% confluency at which point they are sub-cultured or harvested for assay use. A serial dilution of test compound is dispensed into a 96-well black clear bottom plate in triplicate. Three thousand cells are added per well in 200 μL complete growth medium in the 96-well plate. Plates are incubated for 67 to 72 h at 37° C., 5% CO2, and 95% humidity. At the end of the incubation, 40 μL of a 440 μM solution of resazurin (Sigma, St. Louis, MO) in PBS is added to each well of the plate and plates are incubated for an additional 5 to 6 h at 37° C., 5% CO2, and 95% humidity. Plates are read on a Synergy2 or equivalent reader (Biotek, Winooski VT) using an excitation of 540 nm and an emission of 600 nm. Data is analyzed using Prism software (Graphpad, San Diego, CA) to calculate IC50 values.

[3] = tested on: HCT-116 cells; assay: HCT-116 Cell Proliferation Assay; type: cell-based; details: Homo sapiens, HCT-116, HCT-116 cells; Table 2; read-out: Inhibition of cell proliferation in HCT-116 (IC50 class)
Procedure: HCT-116 cells (catalog #CCL-247) are obtained from the American Type Culture Collect (ATCC, Manassas, VA). Briefly, cells are grown in McCoy's 5A supplemented with 10% characterized fetal bovine serum (Invitrogen, Carlsbad, CA) and 1% Penicillin/Streptomycin/L-Glutamine at 37° C., 5% CO2, and 95% humidity. Cells are expanded until reaching 70-95% confluency at which point they are subcultured or harvested for assay use. A serial dilution of test compound is dispensed into a 384-well black clear bottom plate in triplicate. 375 cells are added per well in 50 μL complete growth medium in the 384-well plate. Plates are incubated for 67 to 72 hours at 37° C., 5% CO2, and 95% humidity. At the end of the incubation, 40 μL of a […] solution of resazurin (Sigma, St. Louis, MO) in PBS is added to each well of the plate and plates are incubated for an additional 4 to 5 h at 37° C., 5% CO2, and 95% humidity. Plates are read on a Synergy2 or equivalent reader (Biotek, Winooski, VT) using an excitation of 540 nm and an emission of 600 nm. Data is analyzed using Prism software (Graphpad, San Diego, CA) to calculate IC50 values.

[4] = target: T2, C-Raf kinase (SEQ ID NO: 2) (Homo sapiens, UniProt P04049, Y340D/Y341D); assay: Biochemical Assay for C-Raf (coupled pyruvate kinase/lactate dehydrogenase assay); details: 1 mM ATP; read-out: CRAF (inhibition of biochemical activity, IC50)
T2 construct: C-Raf residues 306-end; Y340D, Y341D with; GST (N); purchased Sigma

[5] = tested on: HPAF-II cells; assay: HPAF-II Cell Proliferation Assay; type: cell-based; details: Homo sapiens, HPAF-II, HPAF-II cells; Table 2; read-out: Inhibition of cell proliferation in HPAF-II (IC50 class)
Procedure: (§1) HPAF-II cells (catalog #CRL-1997) are obtained from the American Type Culture Collect (ATCC, Manassas, VA). Briefly, cells are grown in Minimum Essential Media supplemented with 10% characterized fetal bovine serum (Invitrogen, Carlsbad, CA) and 1% Penicillin/Streptomycin/L-Glutamine at 37° C., 5% CO2, and 95% humidity. Cells are expanded until reaching 70-95% confluency at which point they are sub-cultured or harvested for assay use. A serial dilution of test compound is dispensed into a 384-well black clear bottom plate in triplicate. 750 cells are added per well in 50 μL complete growth medium in the 384-well plate. Plates are incubated for 115 to 120 hours at 37° C., 5% CO2, and 95% humidity. At the end of the incubation, 40 μL of a 440 μM solution of resazurin (Sigma, St. Louis, MO) in PBS is added to each well of the plate and plates are incubated for an additional 18 to 24 hours at 37° C., 5% CO2, and 95% humidity. Plates are read on a Synergy2 or equivalent reader (Biotek, Winooski, VT) using an excitation of 540 nm and an emission of 600 nm. Data is analyzed using Prism software (Graphpad, San Diego, CA) to calculate IC50 values.

[6] = tested on: Pa16c cells; assay: Pa16c Cell Proliferation Assay; type: cell-based; details: Table 2, read-out: Inhibition of cell proliferation in Pa16c (IC50 class)
Procedure: as §1, with “Pa16c” for “HPAF-II”, “cells” for “cells (catalog #CRL-1997)”, “Dr. Channing Der, University of North Carolina at Chapel Hill.” for “the American Type Culture Collect (ATCC, Manassas, VA).”, “Dulbecco's Modified Eagle Medium” for “Minimum Essential Media”, “67” for “115”, “72 h” for “120 hours”

T1 sequence (P15056 416-766): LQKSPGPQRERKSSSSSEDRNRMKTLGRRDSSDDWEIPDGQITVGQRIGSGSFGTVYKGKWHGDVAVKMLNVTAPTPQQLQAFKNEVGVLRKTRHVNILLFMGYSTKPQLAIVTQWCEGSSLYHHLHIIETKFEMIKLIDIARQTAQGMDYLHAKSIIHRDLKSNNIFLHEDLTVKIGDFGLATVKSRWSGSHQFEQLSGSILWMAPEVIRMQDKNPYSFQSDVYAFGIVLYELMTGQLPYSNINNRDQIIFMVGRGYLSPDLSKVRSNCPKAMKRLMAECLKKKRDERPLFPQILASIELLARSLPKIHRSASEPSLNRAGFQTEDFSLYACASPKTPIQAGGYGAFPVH
T2 sequence (P04049 307-648 Y340D/Y341D): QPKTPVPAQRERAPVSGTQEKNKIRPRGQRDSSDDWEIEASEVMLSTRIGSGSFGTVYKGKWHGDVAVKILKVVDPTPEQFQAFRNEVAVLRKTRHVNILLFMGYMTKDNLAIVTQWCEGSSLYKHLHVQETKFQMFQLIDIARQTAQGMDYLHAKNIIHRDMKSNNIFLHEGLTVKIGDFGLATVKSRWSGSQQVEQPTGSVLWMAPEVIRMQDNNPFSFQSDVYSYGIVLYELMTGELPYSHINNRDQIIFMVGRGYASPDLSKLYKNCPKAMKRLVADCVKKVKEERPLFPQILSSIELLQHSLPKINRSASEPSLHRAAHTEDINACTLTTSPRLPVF

| Structure (SMILES) | IC50 [1] | IC50 [2] | IC50 [3] | IC50 [4] | IC50 [5] | IC50 [6] |
| --- | --- | --- | --- | --- | --- | --- |
| Cc1ccc(NC(=O)c2ccc(C(F)(F)F)nc2)cc1-c1cncc(-c2cc(NC(=O)C3CC3)ncn2)c1 [Example 75] | < 100 nM | 1000 to 10000 nM | 1000 to 10000 nM | < 100 nM | 1000 to 10000 nM | 1000 to 10000 nM |
| Cc1ccc(NC(=O)c2cc(C(C)(F)F)cnn2)cc1-c1cncc(-c2cc(NC(=O)C3CC3)ncn2)c1 [Example 63] | < 100 nM | 100 to 500 nM | < 100 nM | < 100 nM | 100 to 500 nM | 500 to 1000 nM |
| Cc1ccc(NC(=O)c2cc(C(C)C)cnn2)cc1-c1cncc(-c2cc(NC(=O)C3CC3)ncn2)c1 [Example 64] | < 100 nM | 500 to 1000 nM | 100 to 500 nM | < 100 nM | 100 to 500 nM | 100 to 500 nM |
| Cc1ccc(NC(=O)c2cc(C(C)(F)F)cnn2)cc1-c1ccnc(-c2cncn2C)c1 [Example 138] | < 100 nM | 100 to 500 nM | 100 to 500 nM | < 100 nM | 100 to 500 nM | 100 to 500 nM |
| CC(=O)Nc1cc(-c2cncc(-c3cc(NC(=O)c4ccc(C(F)F)nc4)ccc3C)n2)ccn1 [Example 26] | 100 to 500 nM | 100 to 500 nM | 100 to 500 nM | 100 to 500 nM | 500 to 1000 nM | 500 to 1000 nM |
| Cc1ccc(NC(=O)c2cnc(C(F)(F)F)cn2)cc1-c1ccnc(-c2ccnc(NC(=O)C3CC3)c2)c1 [Example 56] | 100 to 500 nM | 500 to 1000 nM | 500 to 1000 nM | < 100 nM | 1000 to 10000 nM | 1000 to 10000 nM |
| Cc1ccc(NC(=O)c2cc(C(F)(F)F)cnn2)cc1-c1cncc(-c2ccnc(NC(=O)C3CC3)c2)c1 [Example 39] | < 100 nM | 500 to 1000 nM | 100 to 500 nM | < 100 nM | 500 to 1000 nM | 100 to 500 nM |
| Cc1ccc(NC(=O)c2cc(C(C)(F)F)cnn2)cc1-c1ccnc(-c2cnsc2)c1 [Example 137] | 100 to 500 nM | 100 to 500 nM | 100 to 500 nM | < 100 nM | 100 to 500 nM | 500 to 1000 nM |
| Cc1ccc(NC(=O)c2cc(C(F)(F)F)cnn2)cc1-c1cc(N[C@H](C)CO)nc(-c2c(C)n[nH]c2C)c1 [Example 122] | 100 to 500 nM | 100 to 500 nM | 100 to 500 nM | < 100 nM | 500 to 1000 nM | 100 to 500 nM |
| Cc1ccc(NC(=O)c2cc(C3CC3)cnn2)cc1-c1ccnc(-c2ccoc2)c1 [Example 147] | 100 to 500 nM | 100 to 500 nM | 100 to 500 nM | 100 to 500 nM | 100 to 500 nM | 100 to 500 nM |
